In patent US20230233569A1 (Revolution Medicines, Inc., priority 2020, published 2023):
Several values for one entry are separate records, joined by “and”; a condition that tells them apart may be missing. Equal values may be shown once. Read-outs that look alike come from different tables or passages of the source.

Experiments:
KRAS G12D = KRAS G12D (Homo sapiens, UniProt P01116+P62937, G12D); assay: Disruption of BRAF RBD interaction with Ras (FRET / MOA assay, with Cyclophilin A); type: biochemical
Procedure, shortened: (§1)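 First, compounds at a ten-point threefold dilution series (highest final concentration 30 μM) were incubated with nucleotide-loaded K-Ras, Cyclophilin A and BRAF RBD for 3 h at 25 °C. Next, detection antibodies were added for 1.5 h. Finally, IC50 was calculated from TR-FRET ratio decreases against DMSO controls.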

NRAS G12C = NRAS G12C (Homo sapiens, UniProt P01111+P62937, G12C); assay: as above; type: biochemical
KRAS WT = KRAS WT (Homo sapiens, UniProt P01116+P62937); assay: as above; type: biochemical
Procedure, shortened: as §1

KRAS G12S = KRAS G12S (Homo sapiens, UniProt P01116+P62937, G12S); assay: as above; type: biochemical
Procedure, shortened: as §1

KRAS G13D = KRAS G13D (Homo sapiens, UniProt P01116+P62937, G13D); assay: as above; type: biochemical
Procedure, shortened: as §1

KRAS G13C = KRAS G13C (Homo sapiens, UniProt P01116+P62937, G13C); assay: as above; type: biochemical
Procedure, shortened: as §1

KRAS G12V = KRAS G12V (Homo sapiens, UniProt P01116+P62937, G12V); assay: as above; type: biochemical
Procedure, shortened: as §1

KRAS G12C = KRAS G12C (Homo sapiens, UniProt P01116+P62937, G12C); assay: as above; type: biochemical
Procedure, shortened: as §1

NCI-H358 (K-Ras G12C) = assay: CellTiter-Glo cell viability assay, 5-day treatment; type: cell-based; details: Homo sapiens, NCI-H358, 120 h, 5-day treatment; read-out: H358 Cell Viability assay data (K-Ras G12C, IC50)
Procedure, shortened: (§2)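 Viability is read as luminescence on day 5 after direct compound addition to plated cells, following about 30 minutes' room-temperature equilibration. Each signal is scaled to mean DMSO as 100%.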

Capan-1 (K-Ras G12V) = assay: as above; type: cell-based; details: Homo sapiens, CAPAN-1, 120 h, 5-day treatment; read-out: Capan-1 Cell Viability assay data (K-Ras G12V, IC50)
Procedure, shortened: as §2

[1] = read-out: KRAS G12D FRET data, IC50
[2] = NRAS G12C, read-out: NRAS G12C FRET data IC50
[3] = KRAS WT, read-out: KRAS WT FRET data IC50
[4] = read-out: KRAS G12S FRET data, IC50
[5] = KRAS G13D, read-out: KRAS G13D FRET data IC50
[6] = read-out: KRAS G13C FRET data, IC50
[7] = KRAS G12V, read-out: KRAS G12V FRET data IC50
[8] = read-out: KRAS G12C FRET data, IC50

NRAS G12C, sequence (P01111 whole entry G12C): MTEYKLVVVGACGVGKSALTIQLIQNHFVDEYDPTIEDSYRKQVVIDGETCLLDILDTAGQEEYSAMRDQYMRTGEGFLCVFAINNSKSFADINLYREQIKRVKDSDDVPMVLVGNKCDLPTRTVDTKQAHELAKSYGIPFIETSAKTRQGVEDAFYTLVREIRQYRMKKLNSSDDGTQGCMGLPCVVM
NRAS G12C, sequence (P62937 whole entry): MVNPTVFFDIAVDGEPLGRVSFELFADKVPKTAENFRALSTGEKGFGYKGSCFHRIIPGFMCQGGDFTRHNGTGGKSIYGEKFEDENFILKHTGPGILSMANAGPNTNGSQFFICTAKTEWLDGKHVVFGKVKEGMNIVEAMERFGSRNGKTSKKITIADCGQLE
KRAS WT, sequence (P01116 1-169 isoform P01116-2 limits assumed): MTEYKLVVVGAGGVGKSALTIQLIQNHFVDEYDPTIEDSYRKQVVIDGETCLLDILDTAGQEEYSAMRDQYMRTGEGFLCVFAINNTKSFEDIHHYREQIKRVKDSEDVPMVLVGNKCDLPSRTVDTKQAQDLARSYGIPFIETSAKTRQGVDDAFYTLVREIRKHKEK
KRAS WT, sequence (P62937 whole entry): as the sequence (P62937 whole entry) above
KRAS G12C, sequence (P01116 1-169 isoform P01116-2 G12C): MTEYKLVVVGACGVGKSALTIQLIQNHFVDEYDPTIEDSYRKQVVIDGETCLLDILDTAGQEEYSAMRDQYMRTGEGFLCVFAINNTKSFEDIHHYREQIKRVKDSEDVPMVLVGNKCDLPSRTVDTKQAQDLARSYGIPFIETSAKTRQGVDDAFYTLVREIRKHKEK
KRAS G12C, sequence (P62937 whole entry): as the sequence (P62937 whole entry) above
KRAS G12D, sequence (P01116 1-169 isoform P01116-2 G12D limits assumed): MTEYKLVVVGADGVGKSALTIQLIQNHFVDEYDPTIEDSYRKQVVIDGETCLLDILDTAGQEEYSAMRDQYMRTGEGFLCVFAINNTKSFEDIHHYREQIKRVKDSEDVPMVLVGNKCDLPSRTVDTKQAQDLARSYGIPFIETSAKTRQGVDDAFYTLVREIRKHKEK
KRAS G12D, sequence (P62937 whole entry): as the sequence (P62937 whole entry) above
KRAS G13C, sequence (P01116 1-169 isoform P01116-2 G13C): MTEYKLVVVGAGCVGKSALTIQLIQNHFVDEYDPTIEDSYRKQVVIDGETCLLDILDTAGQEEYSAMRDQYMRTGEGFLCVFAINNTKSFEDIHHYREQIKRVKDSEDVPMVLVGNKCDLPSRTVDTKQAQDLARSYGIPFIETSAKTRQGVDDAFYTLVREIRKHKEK
KRAS G13C, sequence (P62937 whole entry): as the sequence (P62937 whole entry) above
KRAS G12V, sequence (P01116 1-169 isoform P01116-2 G12V limits assumed): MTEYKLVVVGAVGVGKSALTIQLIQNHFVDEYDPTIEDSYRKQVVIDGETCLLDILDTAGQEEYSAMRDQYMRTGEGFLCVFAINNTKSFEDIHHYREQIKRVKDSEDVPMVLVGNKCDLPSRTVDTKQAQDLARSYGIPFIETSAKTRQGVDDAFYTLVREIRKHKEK
KRAS G12V, sequence (P62937 whole entry): as the sequence (P62937 whole entry) above
KRAS G13D, sequence (P01116 1-169 isoform P01116-2 G13D limits assumed): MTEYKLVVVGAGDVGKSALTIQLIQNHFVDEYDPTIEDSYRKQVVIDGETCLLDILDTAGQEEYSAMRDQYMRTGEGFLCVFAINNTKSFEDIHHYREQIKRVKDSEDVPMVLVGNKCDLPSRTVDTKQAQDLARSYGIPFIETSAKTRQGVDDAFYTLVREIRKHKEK
KRAS G13D, sequence (P62937 whole entry): as the sequence (P62937 whole entry) above
KRAS G12S, sequence (P01116 1-169 isoform P01116-2 G12S limits assumed): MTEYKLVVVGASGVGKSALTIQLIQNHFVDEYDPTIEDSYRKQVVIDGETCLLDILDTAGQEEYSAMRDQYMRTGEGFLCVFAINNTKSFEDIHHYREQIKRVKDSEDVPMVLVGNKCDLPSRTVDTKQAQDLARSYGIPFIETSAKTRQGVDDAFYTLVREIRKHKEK
KRAS G12S, sequence (P62937 whole entry): as the sequence (P62937 whole entry) above

Row | SMILES | IC50 (KRAS G12D; [1]) | IC50 (NRAS G12C; [2]) | IC50 (KRAS WT; [3]) | IC50 (KRAS G12S; [4]) | IC50 (KRAS G13D; [5]) | IC50 (KRAS G13C; [6]) | IC50 (KRAS G12V; [7]) | IC50 (KRAS G12C; [8]) | IC50 (NCI-H358 (K-Ras G12C)) | IC50 (Capan-1 (K-Ras G12V)) | IC50 (KRAS G12D; KRAS G12D FRET data, IC50) | IC50 (NRAS G12C; NRAS G12C FRET data IC50, NRAS G12C) | IC50 (KRAS WT; KRAS WT FRET data IC50, KRAS WT) | IC50 (KRAS G12S; KRAS G12S FRET data, IC50) | IC50 (KRAS G13D; KRAS G13D FRET data IC50, KRAS G13D) | IC50 (KRAS G13C; KRAS G13C FRET data, IC50) | IC50 (KRAS G12V; KRAS G12V FRET data IC50, KRAS G12V) | IC50 (KRAS G12C; KRAS G12C FRET data, IC50)
1 | CCn1c(-c2cccnc2[C@H](C)OC)c2c3cc(ccc31)-c1csc(n1)C[C@H](NC(=O)[C@H](C(C)C)N(C)C(=O)N1CCOC3(CN(C)C3)C1)C(=O)N1CCC[C@H](N1)C(=O)OCC(C)(C)C2 [Example A294] | 100 to 1000 nM | 100 to 1000 nM | 100 to 1000 nM | 100 to 1000 nM | 100 to 1000 nM | 100 to 1000 nM | 100 to 1000 nM | 100 to 1000 nM | 10 to 100 nM | 100 to 1000 nM |  |  |  |  |  |  |  | 
2 | CCn1c(-c2cccnc2[C@H](C)OC)c2c3cc(ccc31)-c1cc(O)cc(c1)C[C@H](NC(=O)[C@H](C(C)C)N(C)C(=O)[C@H]1CCC[C@H]1N)C(=O)N1CCC[C@H](N1)C(=O)OCC(C)(C)C2 (atropisomer, axis not shown) [Example A131] | 10 to 100 nM | 10 to 100 nM | 10 to 100 nM | 10 to 100 nM | 10 to 100 nM | 10 to 100 nM | 100 to 1000 nM | 10 to 100 nM | 10 to 100 nM | 100 to 1000 nM |  |  |  |  |  |  |  | 
3 | CCn1c(-c2cccnc2[C@H](C)OC)c2c3cc(ccc31)-c1csc(n1)C[C@H](NC(=O)[C@H](C(C)C)N(C)C(=O)N(C)CC(C)C)C(=O)N1CCC[C@H](N1)C(=O)OCC(C)(C)C2 [Example A332] | 100 to 1000 nM | 100 to 1000 nM | 100 to 1000 nM | 100 to 1000 nM | 100 to 1000 nM | 100 to 1000 nM | 100 to 1000 nM | 100 to 1000 nM | 100 to 1000 nM | 100 to 1000 nM |  |  |  |  |  |  |  | 
4 | CCn1c(-c2cnccc2COC)c2c3cc(ccc31)-c1cc(O)cc(c1)C[C@H](NC(=O)[C@H](C(C)C)N(C)C(=O)[C@H]1CCCO1)C(=O)N1CCC[C@H](N1)C(=O)OCC(C)(C)C2 [Example A90] |  |  |  |  |  |  |  |  | 100 to 1000 nM | 100 to 1000 nM | 1000 to 10000 nM | 100 to 1000 nM | 100 to 1000 nM | 100 to 1000 nM | 100 to 1000 nM | 100 to 1000 nM | 100 to 1000 nM | 100 to 1000 nM
5 | CCn1c(-c2cccnc2[C@H](C)OC)c2c3cc(ccc31)-c1cc(O)cc(c1)C[C@H](NC(=O)[C@H](C(C)C)N(C)C(=O)C1NCCC1C(C)C)C(=O)N1CCC[C@H](N1)C(=O)OCC(C)(C)C2 (some centres unmarked) [Example A227] | 100 to 1000 nM and 10 to 100 nM | 100 to 1000 nM | 100 to 1000 nM and 10 to 100 nM | 100 to 1000 nM and 10 to 100 nM | 10 to 100 nM | 10 to 100 nM | 100 to 1000 nM and 1000 to 10000 nM | 100 to 1000 nM and 10 to 100 nM | 1000 to 10000 nM | > 10000 nM |  |  |  |  |  |  |  | 
6 | CCn1c(-c2cccnc2[C@H](C)OC)c2c3cc(ccc31)-c1csc(n1)C[C@H](NC(=O)[C@@H](OC(=O)N1CC(N(C)C)C1)C(C)C)C(=O)N1CCC[C@H](N1)C(=O)OCC(C)(C)C2 [Example A339] | 1000 to 10000 nM | 100 to 1000 nM | 100 to 1000 nM | 1000 to 10000 nM | 1000 to 10000 nM | 1000 to 10000 nM | 1000 to 10000 nM | 100 to 1000 nM | 100 to 1000 nM | 1000 to 10000 nM |  |  |  |  |  |  |  | 
7 | CCn1c(-c2cccnc2[C@H](C)OC)c2c3cc(ccc31)-c1cc(O)cc(c1)C[C@H](NC(=O)[C@H](C(C)C)N(C)C(=O)[C@H]1C[C@H]1C)C(=O)N1CCC[C@H](N1)C(=O)OCC(C)(C)C2 [Example A146] | 100 to 1000 nM | 10 to 100 nM | 10 to 100 nM | 100 to 1000 nM | 100 to 1000 nM | 10 to 100 nM | 10 to 100 nM | 10 to 100 nM | 100 to 1000 nM | 100 to 1000 nM |  |  |  |  |  |  |  | 
8 | CCn1c(-c2cccnc2[C@H](C)OC)c2c3cc(ccc31)-c1cc(O)cc(c1)C[C@H](NC(=O)[C@H](C(C)C)N(C)C(=O)[C@H]1CCN[C@H]1C)C(=O)N1CCC[C@H](N1)C(=O)OCC(C)(C)C2 [Example A127] | 10 to 100 nM | 10 to 100 nM | 10 to 100 nM | 10 to 100 nM | 10 to 100 nM | 10 to 100 nM | 100 to 1000 nM | 10 to 100 nM | 1000 to 10000 nM | > 10000 nM |  |  |  |  |  |  |  | 
